What all share (type): in vivo
The test system of data set [1] is mice (RJ:NMRI, males). The experiment in a line: Bright/dark box test (clear/dark transition test). The method, then: This model, also known as clear/dark transition test, is characterized as a model of conflict, based on the natural tendency to explore new environments versus avoidance of doing so, due to the potential possibility of the presence of aversive stimuli. It is an animal model based on independent behavior of conditioning, therefore, there is no need of learning. In rodents, this model is grounded in their natural aversion to excessively clear environments. This aversion is measured from the ansiogenic component expressed by lower exposure of the animal to the clear compartment.
The method employed followed the procedure described by Crawley and Goodwin (Pharmacol. Biochem. Behav. 1981, 15, 695-699).
The animals were placed on the clear field of a box comprising two compartments, one being illuminate and open (25 x 27 x 27 cm) and the other being dark and close (20 x 27 x 27 cm). Data on the length of stay in each compartment were collected over the three-minute test.
This test aimed at obtaining a comparison profile of response of Compound (A) (3-(2-(-4-(2-methoxyphenyl)piperazin-1-yl)ethyl)quinazolin-4(3H)-one and Compound (B) 3-(2-(4-(2-cyanophenyl)piperazin-1-yl)ethyl)quinazolin-4(3H)-one with known compounds that act by different mechanisms. The comparative compounds were alprazolam (benzodiazepine), paroxetine (ISRS-type antidepressant), venlafaxine (IRSN-type antidepressant) and agomelatine (antidepressant that acts on melatonin and serotonin 5-HT2C receptor). The following doses were employed in this study: Table 1: Tested compounds, concentrations and route of administration.
In this blind study, ten mice (RJ:NMRI, males) were employed per group. Clobazam (12 mg/Kg, i.p. route) was administered under the same study conditions as the reference compound. All compounds were administered 30 minutes before the test.
The test data of the response of substances were analyzed comparing the groups treated with the control vehicle using one-way ANOVA followed by post-hoc analysis of Dunnett's test. The data of the reference substance obtained were analyzed using unpaired Student's t test.

Data set [2] relates to Mice. The experiment in a line: Sphere hiding test. The method, then: This test is based on the natural aversive behavior to glass and marble of rodents, where the presence of these objects triggers the action of burying (hiding). In this test, there are potential behavioral changes of medicines that may promote an ansiogenic or anxiolytic profile. This is determined by the increase or decrease of the behavior of hiding glass spheres ("marbles") that are randomly distributed on the surface of a box lined with sawdust. The increase of the number of covered balls is an indicative of anxiety, since it is supposed to represent a foreign agent to the animal, whose presence may pose threat. The administration of anxiolytics medicines decreases the number of spheres buried in non-sedative doses.
The method employed followed the procedure described by Broekkamp et al. (Eur. J. Pharmacol., 1986, 126, 223-229).
Mice were individually placed in transparent plastic cages (33 x 21 x 18 cm), with the floor covered by a 5 cm layer of sawdust and 25 glass spheres grouped in the center of the cage. The cage was covered with a perforated plastic cover. Each test cage, along with the glass spheres, were previously impregnated with "mouse odor", and a group of 10 mice was left inside for 15 minutes.
The number of glass spheres covered with sawdust (2/3 or more of the surface) was counted at the end of the 30 minutes of the test.
Each study group consisted of 12 mice. The test was partially blind (substances tested versus vehicle of the tested substances).
This test aimed at obtaining a comparison profile of response of Compound (A) (3-(2-(-4-(2-methoxyphenyl)piperazin-1-yl) ethyl) quinazolin-4 (3H) -one and Compound (B) (3-(2-(4-(2-cyanophenyl)piperazin-1-yl)ethyl)quinazolin-4(3H)-one) with known compounds that act by different mechanisms. The comparative compounds used were alprazolam (benzodiazepine) and paroxetine (ISRS-type antidepressant). These compounds were tested in the following doses: Table 3: Compounds tested, concentrations employed and route of administration.
Fluoxetine (ISRI antidepressant) was used as the positive control substance in the test, and was administered at 32 mg/kg (i.p.).
Quantitative data for the tested substances (number of glass spheres coated with sawdust) were evaluated by comparison with the treated groups using one-way ANOVA followed by planned comparisons against the appropriate vehicles. Data with fluoxetine were compared to the vehicle control using unpaired Student's t test.

For data set [3], the system named is Mice. The experiment in a line: Non-precipitated withdrawal test. The source says:
This test aims at assessing how the sudden cessation of the administration of a medicine can be associated with the occurrence of withdrawal identifiable symptoms. The types of symptoms examined are feed changes, weight gain, body temperature and the occurrence of one or behavioral symptoms and others, such as tremor, teeth chattering, wet dog body-shaking, diarrhea or piloerection. The triggering of these signs is a first sign that the substance induces dependence after repeated administration.
The method employed followed the procedure described by Goudie and Leathley (Psychopharmacology 1991, 103: 529-537).
Two mice per cage received two administrations per day (approximately 10:00 hours and 16:00 hours) of the test substance continuously during 19 days (day 1 to day 19), with the last administration occurring next to 10:00 hours of the 20th day. Control animals received the same number of administrations of vehicle. […] During the discontinuation phase, all animals received administration of vehicle once a day.
Additionally to the observations made after discontinuing the medicines, the same measures were taken at day 1 and day 10 of treatment, in addition to the 3 last days (days 18 to 20) immediately prior to administration of the dose in the morning to assess the effects of medicines before discontinuation. After discontinuation, the first observation was performed 24 hours after the last administration and, from then on, every 24 hours (days 21 to 28).
For daily measurements, the animals were evaluated with respect to behavioral changes during 5 minutes (two animals simultaneously observed). Then, their body weights and rectal temperatures were measured. Then, they received the proper treatment and were returned to their cages.
The leftover food in their supporters was weighed immediately after all animals return to their cages (only in the mornings), and food consumption in the previous 24 hours was determined.
The body weights, feed consumption and rectal temperatures were also measured 24 hours before the first administration, as reference values. The treated groups were homogenized with regard to body weights on the day preceding the first administration of the tested substances.
Compound (A) (3-(2-(-4-(2-methoxyphenyl)piperazin-1-yl)ethyl)quinazolin-4 (3H)-one) was evaluated in 3 doses (3, 10 and 30 mg/kg) administered orally (p.o.) and compared to the vehicle (control group).
Chlordiazepoxide (64 mg/kg, p.o.) was administered under the same experimental conditions, and was employed as reference substance in the test.
Paroxetine (15 and 30 mg/kg p.o.) was administered under the same experimental conditions and was used as comparative substance.
The test was blinded. Data were analyzed by comparing substances with their control vehicles employing one-way ANOVA with the group as a factor followed by post-hoc Dunnett tests. Data with the reference substance were analyzed using unpaired Student's t test.

Setting [4] is: 8 mg/Kg i.p., 30 minutes before the test.
Setting [5] is: 8 mg/Kg i.p., 30 minutes before the test, three-minute test.
The mark [6] stands for this setting: 16 mg/Kg i.p., 30 minutes before the test.
[7] abbreviates: 16 mg/Kg i.p., 30 minutes before the test, three-minute test.
Where [8] appears, read: withdrawal phase, 64 mg/kg p.o.

Data on seven molecules can be found in patent publication EP3130339A1, “A COMPOUND FOR USE IN THE TREATMENT OF COMORBID ANXIETY DISORDER AND DEPRESSION DISORDER” (Aché Laboratórios Farmacêuticos S.A., priority 2015, dated 2017).

“And” between values parts separate entries of the source, which are not always exact repeats. Equal entries are not always repeated.

Take `Cc1nnc2n1-c1ccc(Cl)cc1C(c1ccccc1)=NC2` [Alprazolam, alprazolam]: in data set [1] (mouse, in vivo), the “Time spent in the clear compartment (seconds) (mean ± mean standard error)” value (from here on “Time spent … (mean ± mean standard error)”) was 103.9 ± 11.5 s and 126.9 ± 10.1 s and 112.7 ± 15.5 s. Also, in data set [2] (mouse, in vivo), the “Number of Hidden Spheres (mean ± mean standard error)” value (“Number … (mean ± mean standard error)” below) is 1,6 ± 1,4 and the “Number of Hidden Spheres Compared to vehicle control %” value (“Number … to vehicle control %” for short) is listed as -92%. In data set [3] (mouse, in vivo), the “amount of food consumed” value is “significant reduction in the amount of food consumed on the first day of abstinence”; the “body weight, amount of food consumed and rectal temperature (the three studied parameters)” value is “showed no significant changes”. Also, in data set [3] (mouse, in vivo, po), the “withdrawal syndrome after an extended administration regimen” value is recorded as “induces withdrawal syndrome”.

As to `N#Cc1ccccc1N1CCN(CCn2cnc3ccccc3c2=O)CC1` [Compound (B), 3-(2-(4-(2-cyanophenyl)piperazin-1-yl)ethyl)quinazolin-4(3H)-one], the “Time spent in the clear compartment compared to vehicle %” value (“Time spent … to vehicle %” below) in data set [1] (4 mg/Kg i.p., 30 minutes before the test) is “+37%”; in data set [1] (setting [4]), “+40%”; in data set [1] (setting [6]), “+103%”. Moreover, the “Time spent … (mean ± mean standard error)” value in data set [1] (4 mg/Kg i.p., 30 minutes before the test, three-minute test) was 100.9 ± 15.2 s; in data set [1] (setting [5]), 103.0 ± 11.5 s; in data set [1] (setting [7]), 149.3 ± 11.0 s. Also, the “permanence time in the clear compartment (result in words)” value in data set [1] (summary of Table 2 over the doses tested, i.p.) is reported as “efficient in extending the permanence time in the clear compartment”. Also, the “Number … to vehicle control %” value is given as -42% in data set [2] (dose given in Table 4 as (4), i.p.) and -89% in data set [2] (dose given in Table 4 as (8), i.p.). For the same molecule, the “Number … (mean ± mean standard error)” value in data set [2] (dose given in Table 4 as (4), i.p., 25 glass spheres, counted at the end of 30 minutes) was determined as 11.0 ± 3.3; in data set [2] (dose given in Table 4 as (8), i.p., 25 glass spheres, counted at the end of 30 minutes), 2.1 ± 2.1. Besides, the “number of hidden spheres (result in words)” value in data set [2] (summary of Table 4 over the doses tested, i.p.) was “significantly reduced the number of hidden spheres”.

As for `COc1ccc(C(CN(C)C)C2(O)CCCCC2)cc1` (stereo not shown) [Venlafaxine, venlafaxine], the “Time spent … to vehicle %” value is recorded as -2% in data set [1] (setting [4]); -12% in data set [1] (setting [6]); “+7%” in data set [1] (32 mg/Kg i.p., 30 minutes before the test). Also, the “Time spent … (mean ± mean standard error)” value was 72.3 ± 7.3 s in data set [1] (setting [5]); 65.1 ± 6.0 s in data set [1] (setting [7]); 78.9 ± 4.9 s in data set [1] (32 mg/Kg i.p., 30 minutes before the test, three-minute test).

For `CNCCC(Oc1ccc(C(F)(F)F)cc1)c1ccccc1` (stereo not shown) [Fluoxetine], the “Number … to vehicle control %” value in data set [2] (32 mg/kg i.p., positive control) is given as -74%. The “Number … (mean ± mean standard error)” value in data set [2] (32 mg/kg i.p., positive control, 25 glass spheres, counted at the end of 30 minutes) was 4.9 ± 2.0.

With `CNC1=Nc2ccc(Cl)cc2C(c2ccccc2)=[N+]([O-])C1` [Chlordiazepoxide], the “withdrawal syndrome after an extended administration regimen” value in data set [3] (overall conclusion of the test, p.o., two administrations per day, day 1 to 20) is “induces a clear withdrawal syndrome”. Also, in data set [3] (treatment phase, 64 mg/kg p.o.), the “behavioral and psychological effects” value was “ptosis, hyperactivity, jumps and dyspnoea”; the “body weight and amount of food consumed” value is on record as “did not induce significant changes”; the rectal temperature entry was “slight increase of rectal temperature”. Besides, in data set [3] (setting [8]), the “behavioral and psychological effects” value was “intensified the psychological behaviors and symptoms, mainly dyspnoea and hyperactivity, inducing occasional straub tail and teeth chattering”; the “body weight, amount of food consumed and rectal temperature” value was “clear reduction in body weight and the amount of food consumed, and a significant increase of rectal temperature”.

Regarding `CN1C(=O)CC(=O)N(c2ccccc2)c2cc(Cl)ccc21` [Clobazam], the “Time spent … to vehicle %” value in data set [1] (12 mg/Kg i.p., 30 minutes before the test, reference compound) was “+41%”. Besides, in data set [1] (12 mg/Kg i.p., 30 minutes before the test, three-minute test, reference compound), the “Time spent … (mean ± mean standard error)” value came out at 104.0 ± 5.2 s.

For the molecule `COc1ccc2cccc(CCNC(C)=O)c2c1` [Agomelatine, agomelatine], the “Time spent … to vehicle %” value in data set [1] (25 mg/Kg i.p., 30 minutes before the test) is on record as -12%; in data set [1] (50 mg/Kg i.p., 30 minutes before the test) it was -4%; in data set [1] (75 mg/Kg i.p., 30 minutes before the test) it was -3%. Besides, the “Time spent … (mean ± mean standard error)” value in data set [1] (25 mg/Kg i.p., 30 minutes before the test, three-minute test) is 64.7 ± 4.9 s; in data set [1] (50 mg/Kg i.p., 30 minutes before the test, three-minute test), 70.6 ± 8.5 s; in data set [1] (75 mg/Kg i.p., 30 minutes before the test, three-minute test) it was 71.3 ± 7.3 s.
